In the assay the target is human GHS-R 1a (Homo sapiens, UniProt Q92847). The assay can be described thus: GHS-R 1a receptor-ligand binding assay (membrane preparations from transfected LLC PK-1 cells). Further details: expressed in transfected cells. As to conditions: displacement of 125I-His9-ghrelin; plasma membranes of LLC PK-1 cells transiently transfected with human GHS-R 1a; mean of at least two independent experiments in triplicates. The protocol:
II) GHS-R 1a Receptor-Ligand Binding Assay (Membrane Preparations from Transfected LLC PK-1 Cells)
The GHS-R 1a receptor binding/affinity studies were performed according to Guerlavais et al. (J. Med. Chem. 2003, 46: 1191-1203).
Isolated plasma membranes from LLC PK-1 cells, a renal epithelial cell line originally derived from porcine kidneys (ECACC No. 86121112) (10 μg of protein), that were transiently transfected with human GHS-R 1a cDNA (Guerlavais et al., J. Med. Chem. 2003, 46: 1191-1203), were incubated in homogenization buffer HB [50 mM Tris (pH 7.3), 5 mM MgCl2, 2.5 mM EDTA, and 30 μg/mL bacitracin (Sigma)] for 60 min at 25° C. (steady-state conditions) with […] ^125I-His^9-ghrelin (Amersham) in the presence or absence of competing compounds (compounds of the invention).
Nonspecific binding was defined using an excess (10^−6 M) of ghrelin. The binding reaction was stopped by addition of 4 mL of ice-cold HB followed by rapid filtration over Whatman GP/C filters presoaked with 0.5% polyethyleneimine to prevent excessive binding of radioligand to the filters. Filters were rinsed three times with 3 mL of icecold wash buffer [50 mM Tris (pH 7.3), 10 mM MgCl2, 2.5 mM EDTA, and 0.015% (w/v) X-100 Triton], and the radioactivity bound to membranes was measured in a gammacounter (Kontron Analytical Gamma Matic, Automatic gamma counting system).
The concentration of test compounds required to inhibit radiolabelled ghrelin binding by 50% (IC50) was determined by fitting competitive binding curves using non-linear regression (PRISM 3.0, Graph Pad San Diego, USA).
In the following table 2 results obtained for selected compounds of the invention are presented in comparison to an example of the prior art. IC50 values given are the mean of at least two independent experiments performed in triplicates.
(In a radioligand displacement assay an active substance lowers the binding of a labelled ligand.)

Chain of human GHS-R 1a (Q92847 whole entry): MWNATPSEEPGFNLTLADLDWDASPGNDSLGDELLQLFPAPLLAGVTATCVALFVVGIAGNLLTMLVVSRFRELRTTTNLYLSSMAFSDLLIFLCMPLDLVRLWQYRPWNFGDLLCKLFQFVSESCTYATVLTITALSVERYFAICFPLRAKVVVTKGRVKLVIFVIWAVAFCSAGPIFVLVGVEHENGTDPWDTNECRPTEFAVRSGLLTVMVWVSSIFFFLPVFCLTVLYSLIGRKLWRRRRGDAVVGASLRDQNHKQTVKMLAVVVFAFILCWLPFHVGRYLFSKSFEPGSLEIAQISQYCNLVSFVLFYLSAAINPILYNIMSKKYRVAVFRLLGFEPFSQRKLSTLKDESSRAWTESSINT

For `O=C(N[C@H](Cc1c[nH]c2ccccc12)c1nnc(CCCc2c[nH]c3ccccc23)n1Cc1cccc2ccccc12)c1cnccn1` [Compound 51, N-((R)-1-(5-(3-(1H-indol-3-yl)propyl)-4-((naphthalen-1-yl)methyl)-4H-1,2,4-triazol-3-yl)-2-(1H-indol-3-yl)ethyl)pyrazine-2-carboxamide], the IC50 (as a rule, the concentration that gives 50% inhibition) is 107 nM.

Compound `O=C(Cc1ccccn1)N[C@H](Cc1c[nH]c2ccccc12)c1nnc(CCc2c[nH]c3ccccc23)n1Cc1ccc(Cl)c(Cl)c1` [Compound 52, N-((R)-1-(5-(2-(1H-indol-3-yl)ethyl)-4-(3,4-dichlorobenzyl)-4H-1,2,4-triazol-3-yl)-2-(1H-indol-3-yl)ethyl)-2-(pyridin-2-yl)acetamide] gave an IC50 of 48 nM.

Compound `O=C(N[C@H](Cc1c[nH]c2ccccc12)c1nnc(CCc2ccccc2)n1CCc1ccccc1)c1ccccc1` [Compound 63, N-((R)-2-(1H-indol-3-yl)-1-(4,5-diphenethyl-4H-1,2,4-triazol-3-yl)ethyl)benzamide] displayed an IC50 of 535 nM. Compared with the last compound, the IC50 is about 11-fold higher.

`COc1ccc(Cn2c(CCc3ccccc3)nnc2[C@@H](Cc2cccc3ccccc23)NC(=O)C2CCCN2)cc1` (stereo partly drawn) [Compound 80, N-((R)-1-(4-(4-methoxybenzyl)-5-phenethyl-4H-1,2,4-triazol-3-yl)-2-(naphthalen-1-yl)ethyl)pyrrolidine-2-carboxamide] showed an IC50 of 18.8 nM. Against the preceding compound, the IC50 is about 28-fold lower.

Turning to `NCCCC(=O)N[C@H](Cc1c[nH]c2ccccc12)c1nnc(CCc2c[nH]c3ccccc23)n1Cc1cccc2ccccc12` [Compound 67, N-((R)-1-(5-(2-(1H-indol-3-yl)ethyl)-4-((naphthalen-1-yl)methyl)-4H-1,2,4-triazol-3-yl)-2-(1H-indol-3-yl)ethyl)-4-aminobutanamide], the IC50 turned out to be 0.27 nM.

Take `COc1ccc(Cn2c(CCc3ccccc3)nnc2[C@@H](Cc2ccc3ccccc3c2)NC(=O)c2ccccn2)cc1` [Compound 57, N-((R)-1-(4-(4-methoxybenzyl)-5-phenethyl-4H-1,2,4-triazol-3-yl)-2-(naphthalen-2-yl)ethyl)picolinamide]: the IC50 was found to be 0.7 nM.

For the compound `O=C(N[C@H](Cc1c[nH]c2ccccc12)c1nnc(CCc2ccccc2)n1Cc1ccc(-c2ccccc2)cc1)C1CCNCC1` [Compound 74, N-((R)-1-(4-(4-phenylbenzyl)-5-phenethyl-4H-1,2,4-triazol-3-yl)-2-(1H-indol-3-yl)ethyl)piperidine-4-carboxamide], the IC50 stood at 95 nM.

On to `O=C(N[C@H](Cc1c[nH]c2ccccc12)c1nnc(CCc2c[nH]c3ccccc23)n1Cc1ccc(Cl)c(Cl)c1)C1CCCN1` (stereo partly drawn) [Compound 53, N-((R)-1-(5-(2-(1H-indol-3-yl)ethyl)-4-(3,4-dichlorobenzyl)-4H-1,2,4-triazol-3-yl)-2-(1H-indol-3-yl)ethyl)pyrrolidine-2-carboxamide], for which the IC50 stood at 158 nM. Against the preceding compound, the IC50 is about 1.7-fold higher.

`COc1ccc(Cn2c(CCc3c[nH]c4ccccc34)nnc2[C@@H](Cc2ccc3ccccc3c2)NC(=O)c2ccccn2)cc1` [Compound 58, N-((R)-1-(5-(2-(1H-indol-3-yl)ethyl)-4-(4-methoxybenzyl)-4H-1,2,4-triazol-3-yl)-2-(naphthalen-2-yl)ethyl)picolinamide] displayed an IC50 of 1 nM.

As to `COc1ccc(Cn2c(CCc3ccccc3)nnc2[C@@H](Cc2ccc3ccccc3c2)NC(=O)C2CCNCC2)cc1` [Compound 54, N-((R)-1-(4-(4-methoxybenzyl)-5-phenethyl-4H-1,2,4-triazol-3-yl)-2-(naphthalen-2-yl)ethyl)piperidine-4-carboxamide], the IC50 was found to be 0.3 nM. Compared with the last compound, the IC50 is about 3.3-fold lower.

With `COc1ccc(Cn2c(CCc3ccccc3)nnc2[C@@H](Cc2cccc3ccccc23)NC(=O)C2CCNCC2)cc1` [Compound 78, N-((R)-1-(4-(4-methoxybenzyl)-5-phenethyl-4H-1,2,4-triazol-3-yl)-2-(naphthalen-1-yl)ethyl)piperidine-4-carboxamide], the IC50 is 2.2 nM.

The compound `O=C(N[C@H](Cc1c[nH]c2ccccc12)c1nnc(CCCc2c[nH]c3ccccc23)n1Cc1cccc2ccccc12)c1ccccn1` [Compound 45, N-((R)-1-(5-(3-(1H-indol-3-yl)propyl)-4-((naphthalen-1-yl)methyl)-4H-1,2,4-triazol-3-yl)-2-(1H-indol-3-yl)ethyl)picolinamide] had an IC50 of 29 nM. Compared with the last compound, the IC50 is about 13-fold higher.

In the case of `O=C(N[C@H](Cc1c[nH]c2ccccc12)c1nnc(CCc2ccccc2)n1CCc1ccccc1)C1CCCCC1` [Compound 62, N-((R)-2-(1H-indol-3-yl)-1-(4,5-diphenethyl-4H-1,2,4-triazol-3-yl)ethyl)cyclohexane-carboxamide], the IC50 stood at 707 nM.

In turn, `NCCCC(=O)N[C@H](Cc1c[nH]c2ccccc12)c1nnc(CCCc2c[nH]c3ccccc23)n1Cc1cccc2ccccc12` [Compound 69, N-((R)-1-(5-(3-(1H-indol-3-yl)propyl)-4-((naphthalen-1-yl)methyl)-4H-1,2,4-triazol-3-yl)-2-(1H-indol-3-yl)ethyl)-4-aminobutanamide] had an IC50 of 126 nM.

In turn, `O=C(N[C@H](Cc1c[nH]c2ccccc12)c1nnc(CCc2ccccc2)n1CCc1ccccc1)C1CCNCC1` [Compound 71, N-((R)-2-(1H-indol-3-yl)-1-(4,5-diphenethyl-4H-1,2,4-triazol-3-yl)ethyl)piperidine-4-carboxamide] came in with an IC50 of 92 nM.

In turn, `COc1ccc(Cn2c(CCc3ccccc3)nnc2[C@@H](Cc2ccc3ccccc3c2)NC(=O)C(C)(C)N)cc1` [Compound 55, N-((R)-1-(4-(4-methoxybenzyl)-5-phenethyl-4H-1,2,4-triazol-3-yl)-2-(naphthalen-2-yl)ethyl)-2-amino-2-methylpropanamide] returned an IC50 of 13.7 nM.

`COc1ccc(Cn2c(CCc3ccccc3)nnc2[C@@H](Cc2ccc3ccccc3c2)NC(=O)C2CCCN2)cc1` (stereo partly drawn) [Compound 59, N-((R)-1-(4-(4-methoxybenzyl)-5-phenethyl-4H-1,2,4-triazol-3-yl)-2-(naphthalen-2-yl)ethyl)pyrrolidine-2-carboxamide] registered an IC50 of 27.8 nM.

Compound `NCCCC(=O)N[C@H](Cc1c[nH]c2ccccc12)c1nnc(CCc2ccccc2)n1Cc1cccc2ccccc12` [Compound 68, N-((R)-2-(1H-indol-3-yl)-1-(4-((naphthalen-1-yl)methyl)-5-phenethyl-4H-1,2,4-triazol-3-yl)ethyl)-4-aminobutanamide] came in with an IC50 of 182 nM.

Compound `O=C(N[C@H](Cc1c[nH]c2ccccc12)c1nnc(Cc2ccccc2)n1Cc1ccc(Cl)c(Cl)c1)c1cnccn1` [Compound 38, N-((R)-1-(4-(3,4-dichlorobenzyl)-5-benzyl-4H-1,2,4-triazol-3-yl)-2-(1H-indol-3-yl)ethyl)pyrazine-2-carboxamide] came in with an IC50 of 430 nM. This IC50 lies about 2.4-fold higher than the previous one.

The compound `O=C(N[C@H](Cc1c[nH]c2ccccc12)c1nnc(CCc2ccccc2)n1CCc1ccccc1)c1ccccn1` [Compound 64, N-((R)-2-(1H-indol-3-yl)-1-(4,5-diphenethyl-4H-1,2,4-triazol-3-yl)ethyl)picolinamide] came in with an IC50 of 198 nM. This IC50 is about 2.2-fold lower than that of the compound before.

On to `O=C(N[C@H](Cc1c[nH]c2ccccc12)c1nnc(CCCc2c[nH]c3ccccc23)n1Cc1cccc2ccccc12)C1CCOCC1` [Compound 46, N-((R)-1-(5-(3-(1H-indol-3-yl)propyl)-4-((naphthalen-1-yl)methyl)-4H-1,2,4-triazol-3-yl)-2-(1H-indol-3-yl)ethyl)-tetrahydro-2H-pyran-4-carboxamide], for which the IC50 is 143 nM.

The compound `O=C(Cc1ccccn1)N[C@H](Cc1c[nH]c2ccccc12)c1nnc(CCc2ccccc2)n1Cc1cccc2ccccc12` [Compound 50, N-((R)-2-(1H-indol-3-yl)-1-(4-((naphthalen-1-yl)methyl)-5-phenethyl-4H-1,2,4-triazol-3-yl)ethyl)-2-(pyridin-2-yl)acetamide] came in with an IC50 of 107 nM.

`O=C(N[C@H](Cc1c[nH]c2ccccc12)c1nnc(CCc2ccccc2)n1CCc1ccccc1)c1cnccn1` [Compound 66, N-((R)-2-(1H-indol-3-yl)-1-(4,5-diphenethyl-4H-1,2,4-triazol-3-yl)ethyl)pyrazine-2-carboxamide] came in with an IC50 of 825 nM.

The compound `COc1ccc(Cn2c(CCc3ccccc3)nnc2[C@@H](Cc2cccc3ccccc23)NC(=O)c2ccccn2)cc1` [Compound 79, N-((R)-1-(4-(4-methoxybenzyl)-5-phenethyl-4H-1,2,4-triazol-3-yl)-2-(naphthalen-1-yl)ethyl)picolinamide] displayed an IC50 of 1.45 nM. Compared with the last compound, the IC50 is about 570-fold lower.

In turn, `O=C(Cc1ccccn1)N[C@H](Cc1c[nH]c2ccccc12)c1nnc(CCCc2c[nH]c3ccccc23)n1Cc1cccc2ccccc12` [Compound 40, N-((R)-1-(5-(3-(1H-indol-3-yl)propyl)-4-((naphthalen-1-yl)methyl)-4H-1,2,4-triazol-3-yl)-2-(1H-indol-3-yl)ethyl)-2-(pyridin-2-yl)acetamide] displayed an IC50 of 20.9 nM.

Source of the values: patent US20090239877A1, “NOVEL 1,2,4-TRIAZOLE DERIVATIVES AND PROCESS OF MANUFACTURING THEREOF” (AETERNA ZENTARIS GmbH, priority 2008, published 2009).
